Source: patent US5565483A, “3-substituted oxindole derivatives as potassium channel modulators” (Bristol-Myers Squibb Company, priority 1995, dated 1996)

Legend:
[1] = system: cloned mammalian (mSIo or hSIo) BK channels; assay: Increase of cloned BK-mediated outward current in Xenopus oocytes, two-electrode voltage clamp; type: cell-based; settings: at 20 μM; at least 5 oocytes; mSIo or hSIo expressed in Xenopus oocytes
Method: The ability of compounds described in the present invention to open BK channels and increase whole-cell outward (K^+) BK-mediated currents was assessed under voltage-clamp conditions by determining their ability to increase cloned mammalian (mSIo or hSIo) BK--mediated outward current heterologously expressed in Xenopus oocytes [Butler, A., et al., Science, 261:221-224 (1993); and Dworetzky, S. I., etal., Mol. Brain Res., 27: 189-193 (1994)]. The two BK constructs employed represent nearly structurally identical homologous proteins, and have proven to be pharmacologically identical in our tests. To isolate BK current from native (background, non-BK) current, the specific and potent BK channel-blocking toxin iberiotoxin (IBTX) [Galvez, A., et al., J. Biol. Chem. 265:11083-11090 (1990)] was employed at a supramaximal concentration (50 nM). The relative contribution of BK channels current to total outward current was determined by subtraction of the current remaining in the presence of IBTX (non-BK current) from the current profiles obtained in all other experimental conditions (control, drug, and wash). […] All compounds were tested in at least 5 oocytes and are reported at the single concentration of 20 uM; the effect of the selected compounds of Formula I on BK current was expressed as the percent of control IBTX-sensitive current and is listed in Table I. Recordings were accomplished using standard two-electrode voltage clamp techniques [Stuhmer, W., et al., Methods in Enzymology, Vol. 207:319-339 (1992)]; voltage-clamp protocols consisted of 500-750 ms duration step depolarizations from a holding potential of -60 mV to +140 mV in 20 mV steps. The experimental media (modified Barth's solution) consisted of (in mM): NaCl (88), NaHCO3 (2.4), KCl (1.0), HEPES (10), MgSO4 (0.82), Ca(NO3)2 (0.33), CaCl2 (0.41); pH 7.5.

[2] = system: cortical infarct volume after MCAO; assay: Permanent middle cerebral artery occlusion (MCAO) focal stroke model; type: in vivo, spontaneously hypertensive rat; settings: single bolus 2 hours after MCAO, infarct measured 24 hours after MCAO, vs vehicle-treated control
Source text: To determine the ability of these compounds to reduce cell loss resulting from neuronal ischemia, a standard rodent model of permanent focal ischemia, involving occlusion of the middle cerebral artery in the spontaneously hypertensive rat (MCAO model) was employed [Tamura, A., et al., Journal of Cerebral Blood Flow and Metabolism, Volume 1, 53-60, (1981)].
Selected compounds have been evaluated in the focal stroke model involving permanent middle cerebral artery occlusion (MCAO) in the spontaneously hypertensive rat. This procedure results in a reliably large neocortical infarct volume that is measured by means of vital dye exclusion in serial slices through the brain 24 hours after MCAO. In the present test, compounds were administered using an i.v. or […]. route of administration at two hours after occlusion.

Structure (SMILES) | BK Current, percent of control IBTX-sensitive current [1] | reduction of cortical infarct volume ([2]; intraparitoneally 10 mg/kg) | reduction of cortical infarct volume ([2]; intravenously 0.03 mg/kg)
O=C1Nc2cc(C(F)(F)F)ccc2C1(O)c1cc(Cl)ccc1O (racemic) [Example 3, (±)-3-(5-Chloro-2-hydroxyphenyl)-1,3-dihydro-3-hydroxy-6-(trifluoromethyl)-2H-indol-2-one] | ++ (++ = 125-150%) |  | 
O=C1Nc2c(C(F)(F)F)cccc2C1(O)c1cc(Cl)ccc1O (racemic) [Example 7, (±)-3-(5-Chloro-2-hydroxyphenyl)-1,3-dihydro-3-hydroxy-7-(trifluoromethyl)-2H-indol-2-one] | + (+ = 100-125%) |  | 
COc1ccc(Cl)cc1C1(F)C(=O)Nc2cc(C(F)(F)F)ccc21 (racemic) [Example 14, (±)-3-(5-Chloro-2-methoxyphenyl)-1,3-dihydro-3-fluoro-6-(trifluoromethyl)-2H-indol-2-one] | ++ (++ = 125-150%) |  | 
O=C1Nc2cc(C(F)(F)F)ccc2C1(O)c1cc(C(F)(F)F)ccc1O (racemic) [Example 9, (±)-1,3-Dihydro-3-hydroxy-3-[2-hydroxy-5-(trifluoromethyl)phenyl]-6-(trifluoromethyl)-2H-indol-2-one] | ++ (++ = 125-150%) |  | 
O=C1Nc2cc(C(F)(F)F)ccc2C1(O)c1cc(Cl)ccc1O (single isomer, unassigned; (-)) [Example 13, (-)-3-(5-Chloro-2-hydroxyphenyl)-1,3-dihydro-3-hydroxy-6-(trifluoromethyl)-2H-indol-2-one] | ++ (++ = 125-150%) |  | 
O=C1Nc2cc(C(F)(F)F)ccc2C1c1cc(Cl)ccc1O (racemic) [Example 4, (±)-3-(5-Chloro-2-hydroxyphenyl)-1,3-dihydro-6-(trifluoromethyl)-2H-indol-2-one] | +++ (+++ = >150%) | about 26% | about 18%
COc1ccc(Cl)cc1C1(O)C(=O)Nc2cc(C(F)(F)F)ccc21 (racemic) [Example 1, (±)-3-(5-Chloro-2-methoxyphenyl)-1,3-dihydro-3-hydroxy-6-(trifluoromethyl)-2H-indol-2-one] | + (+ = 100-125%) |  | 
O=C1Nc2ccc3ccccc3c2C1c1cc(Cl)ccc1O (racemic) [Example 22, (±)-3-(5--Chloro-2-hydroxyphenyl)-1,3-dihydro-2H-benz[e]indol-2-one] | +++ (+++ = >150%) |  | 
O=C1Nc2c(ccc3ccccc23)C1(O)c1cc(Cl)ccc1O (racemic) [Example 15, (±)-3-(5-Chloro-2-hydroxyphenyl)-1,3-dihydro-3-hydroxy-2H-benz[g]indol-2-one] | +++ (+++ = >150%) |  | 
O=C1Nc2cc(Cl)cc(Cl)c2C1(O)c1cc(Cl)ccc1O (racemic) [Example 6, (±)-3-(5-Chloro-2-dhydroxyphenyl)-4,6-dichloro-1,3-dihydro-3-hydroxy-2-H-indol-2-one] | + (+ = 100-125%) |  | 
O=C1Nc2cc(I)ccc2C1c1cc(Cl)ccc1O (racemic) [Example 33, (±)-3-(5-Chloro-2-hydroxyphenyl)-1,3-dihydro-6-iodo-2H-indol-2-one] | +++ (+++ = >150%) |  | 
O=C1Nc2cc(Cl)cc(Cl)c2C1c1cc(Cl)ccc1O (racemic) [Example 31, (±)-3-(5-Chloro-2-hydroxyphenyl)-4,6-dichloro-1,3-dihydro-2H-indol-2-one] | + (+ = 100-125%) |  | 
O=C1Nc2cc(-c3ccccc3)ccc2C1c1cc(Cl)ccc1O (racemic) [Example 16, (±)-3-(5-Chloro-2-hydroxyphenyl)-1,3-dihydro-6-phenyl-2H-indol-2-one] | +++ (+++ = >150%) |  | 
COc1ccc(Cl)cc1C1(F)C(=O)Nc2ccc(F)cc21 (racemic) [Example 25, (±)-3-(5-Chloro-2-methoxyphenyl)-1,3-dihydro-3,5-difluoro-2H-indol-2-one] | + (+ = 100-125%) |  | 
